According to patent publication US10857180B2, “Pharmaceutical composition for improving health, cure abnormalities and degenerative disease, achieve anti-aging effect of therapy and therapeutic effect on mammals and method thereof” (priority 2014, dated 2020):
Several values for one entry are separate records, joined by “and”; a condition that tells them apart may be missing. Identical values can stand only once. Marks after values point to notes of the source that are not given here.

What was measured:
mouse L1210 leukemia = experiment: Mouse L1210 leukemia model; assay type: in vivo
Protocol: The efficacy of the ^64Zne aspartate composition with respect to growth and metastatic activity of the experimental tumor (strain of mouse L1210 leukemia) was assessed in the experiment. […] To inoculate the strain, tumor cells derived from ascitic fluid were placed in normal saline solution, the cellularity of suspension was determined using a hemocytometer and adjusted to a concentration of 1×10^6 cells/ml with saline solution. The tumor was transplanted by injecting 250 μl of the tumor cell suspension (0.25×10^6 cells/mouse) into abdominal cavities of the animals. 80 male BDFi mice at the age of 8-10 weeks, weighing 18-22 g were used in the experiment.
In the experiment, 0.25×10^6 cells of mouse L1210 leukemia in 0.3 ml of saline solution were injected in the peritoneal cavities of the BDFi mice. The agent according to the invention was dissolved in deuterium-depleted water (deuterium-depleted water Langvey) and given to the experimental animals from the first day after the inoculation of the tumor cells. The solution composition comprising ^64Zne aspartate and deuterium-depleted water was injected intraperitoneally using a microinjection syringe at doses of 25 μg/mouse, 50 μg/mouse and 75 pig/mouse every other day (7 times during 14 days) in a volume of 0.5 ml/mouse. The said agent was also injected intravenously at a dose of 25 μg/mouse every other day (7 times during 14 days) in a volume of 0.2 ml/mouse. […] At day 8, 13 and 18 after inoculation of tumor cells, the whole ascites fluid was recovered from the animals and the total number of live/dead cells in each mouse was determined. Some mice were also used to evaluate their average life span in the experiment.
Clinical observations were carried out as described in Example 7. The animals were divided into groups as follows (16 mice per group): • 1. Group No 1: control group, L1210+solvent (deuterium-depleted water); • 2. Group No 2: L1210+^64Zne aspartate administered i.v. at a dose of 25 μg/mouse; • 3. Group No 3: L1210+^64Zne aspartate administered i.p. at a dose of 25 μg/mouse; • 4. Group No 4: L1210+^64Zne aspartate administered i.p. at a dose of 50 μg/mouse; • 5. Group No 5: L1210+^64Zne aspartate administered i.p. at a dose of 75 μg/mouse.
^64Zne aspartate was diluted in deuterium-depleted water and injected, starting from the first day of the tumor transplantation, 7 times every other day during 14 days in a volume of 0.5 ml/mouse using an i.p. route of administration and in a volume of 0.2 ml/mouse using an i.v. route of administration. The animals of the control group received intraperitoneal injections with 0.5 ml/mouse of deuterium-depleted water.
The dynamics of formation of ascites in the control and experimental groups was assessed visually using a 10-point scale (one point was 0.5 cm of the mean diameter of the mouse abdomen filled with ascites).
In addition, at 8, 13 and 18 days after the mice were inoculated with the tumor cells, all ascitic fluid was removed from the abdomens in all animals from each group by washing their peritoneal cavities with saline solution and live and dead tumor cells were counted using the traditional vital dye trypan blue (HyClon, USA) and a hemocytometer.
The number of cells was determined using the following formula: X=((a)/80)×10^6, where X is the number of cells in 1 ml and a is the number of cells counted in 80 small squares of the hemocytometer.
50% of the mice in each group were used to assess their average length of survival in the experiment. The percentage change in the lifespan of the experimental animals was calculated using the following formula: (c−d)/[…]×100, where: c is the average lifespan in the experimental group and d is the average lifespan in the control group. The total time of observation of the lifespan of the experimental animals was 60 days after the tumor inoculation.

[1] = tested on: healthy human skin cells (HaCaT cell line); experiment: Scratch assay, HaCaT cells; assay type: cell-based; details: ^64Zn 25 mcg/ml; equal to control
Protocol: The cells of A-549, A-431, NRK, HaCaT, MM-4, normal fibroblasts (derived from the Bank of Cell Lines from human and animal tissues, R. E. Kavetsky Institute of Experimental Pathology, Oncology and Radiobiology, National Academy of Sciences of Ukraine) were cultured in complete culture medium RPMI 1640/DMEM (PAA, Austria) (depending on the cell type) supplemented with 10% fetal calf serum (PAA, Austria) and incubated in 5% CO2 humidified atmosphere at 37° C. The culture medium was replaced in 2 to 3 days and the cells were passaged in 4 to 5 days.
Analysis of the influence of the components under study on the cell migration rate was performed using the scratch assay method. […]
The plate was incubated in a CO2 incubator for additional 48 hours. After the cells formed a dense monolayer it was damaged (by making a “scratch”) and the growth medium was replaced to remove cell debris and smooth the edges of the “scratch.” The rate of cell migration was analyzed using an inverted microscope and by photographing cells in the area of injury. The migration activity of cells was fixed at several time points (depending on the cell line analyzed). The microphotomicrographs were analyzed and the cell incubation time needed to restore the monolayer was determined for all experimental groups. […]

## NC(CC(=O)[O-])C(=O)[O-].[64Zn+2] (racemic) [^64Zne aspartate, ^64Zn aspartate (racemic)]
Mouse L1210 leukemia; 50 μg/mouse or 75 μg/mouse, after 3 injections
  decrease in the number of live cells in the peritoneal cavities: 100%
Mouse L1210 leukemia; day 8, i.p. 25 μg/mouse
  Number of live cells/mouse (M ± m): 335.8 × 10^6
  Percentage of dead tumor cells in ascites fluid: below 2%
  Volume of ascites (M ± m): 0.8 ± 0.8 ml/mouse
Mouse L1210 leukemia; day 8, i.p. 25 μg/mouse, 1 of 2 mice
  number of cells in the ascites of the one mouse with tumor cells: indicators (671. 6 × 10^6). No
Mouse L1210 leukemia; day 8, i.p. 50 μg/mouse
  Number of live cells/mouse (M ± m): 0**
  Percentage of dead tumor cells in ascites fluid: 0%
  Volume of ascites (M ± m): 0* ml/mouse
Mouse L1210 leukemia; day 8, i.p. 75 μg/mouse
  Number of live cells/mouse (M ± m): 0**
  Percentage of dead tumor cells in ascites fluid: 0%
  Volume of ascites (M ± m): 0* ml/mouse
Mouse L1210 leukemia; day 8, i.v. 25 μg/mouse
  Number of live cells/mouse (M ± m): 902 × 10^6
  Percentage of dead tumor cells in ascites fluid: below 2%
  Volume of ascites (M ± m): 1.2 ± 0.3 ml/mouse
Mouse L1210 leukemia; day 13, i.p. 25 μg/mouse
  Number of live cells/mouse (M ± m): 532.7 × 10^6
  Percentage of dead tumor cells in ascites fluid: below 3%
  Volume of ascites (M ± m): 1.9 ± 1.5 ml/mouse
Mouse L1210 leukemia; day 13, i.p. 50 μg/mouse
  Number of live cells/mouse (M ± m): 0**
  Percentage of dead tumor cells in ascites fluid: 0%
  Volume of ascites (M ± m): 0* ml/mouse
Mouse L1210 leukemia; day 13, i.p. 75 μg/mouse
  Number of live cells/mouse (M ± m): 0**
  Percentage of dead tumor cells in ascites fluid: 0%
  Volume of ascites (M ± m): 0* ml/mouse
Mouse L1210 leukemia; day 13, i.v. 25 μg/mouse
  Number of live cells/mouse (M ± m): 1322 × 10^6
  Percentage of dead tumor cells in ascites fluid: below 3%
  Volume of ascites (M ± m): 6 ± 1.5 ml/mouse
Mouse L1210 leukemia; day 15, 50 μg
  amount of ascites less than control: 87%
Mouse L1210 leukemia; day 15, 75 μg
  amount of ascites less than control: 90%
Mouse L1210 leukemia; day 15, i.p. 25 μg/mouse
  amount of ascites less than control: 60%
Mouse L1210 leukemia; i.p. 25 μg/mouse
  Average lifespan of animals (M ± m): 28.1 ± 4.7 days
  Increase in the lifespan of experimental animals: 41.3%
  Number of animals in the group with tumor: 11 pc
  Number of animals in the group without tumor: 5 pc
Mouse L1210 leukemia; i.p. 25 μg/mouse x7
  Tumor-free animals: 31.2%
Mouse L1210 leukemia; i.p. 25 μg/mouse x7, day 8
  Volume of ascites in mice: 0.6 ± 0.3 points
Mouse L1210 leukemia; i.p. 25 μg/mouse, day 10
  Volume of ascites in mice: 1.1 ± 0.5 points
Mouse L1210 leukemia; i.p. 25 μg/mouse, day 13
  Volume of ascites in mice: 2.5± 0.6 points
Mouse L1210 leukemia; i.p. 25 μg/mouse, day 15
  Volume of ascites in mice: 4.1 points and 4.1 ± 1.1 points
Mouse L1210 leukemia; i.p. 25 μg/mouse, day 18
  Volume of ascites in mice: 4.8 ± 1.4 points
Mouse L1210 leukemia; i.p. 25 μg/mouse, day 20
  Volume of ascites in mice: 4.6 ± 1.8 points
Mouse L1210 leukemia; i.p. 25 μg/mouse, day 22
  Volume of ascites in mice: 3.5 ± 2.2 points
Mouse L1210 leukemia; i.p. 25 μg/mouse, day 26
  Volume of ascites in mice: 2.5 ± 2.5 points
Mouse L1210 leukemia; i.p. 25 μg/mouse, day 28
  Volume of ascites in mice: 0 points
Mouse L1210 leukemia; i.p. 50 μg/mouse
  Average lifespan of animals (M ± m): 41.6 ± 8.7 days
  Increase in the lifespan of experimental animals: 60.3%
  Number of animals in the group with tumor: 5 pc
  Number of animals in the group without tumor: 11 pc
Mouse L1210 leukemia; i.p. 50 μg/mouse x7
  Tumor-free animals: 68.8%
Mouse L1210 leukemia; i.p. 50 μg/mouse x7, day 8
  Volume of ascites in mice: 0* points
Mouse L1210 leukemia; i.p. 50 μg/mouse, day 10
  Volume of ascites in mice: 0* points
Mouse L1210 leukemia; i.p. 50 μg/mouse, day 13
  Volume of ascites in mice: 0.4 ± 0.2 points
Mouse L1210 leukemia; i.p. 50 μg/mouse, day 15
  Volume of ascites in mice: 1.3 ± 0.7 points
Mouse L1210 leukemia; i.p. 50 μg/mouse, day 15, listed as 64Zn aspartate
  Volume of ascites in mice: 1.3 points
Mouse L1210 leukemia; i.p. 50 μg/mouse, day 18
  Volume of ascites in mice: 1.1 ± 1.1 points
Mouse L1210 leukemia; i.p. 50 μg/mouse, day 20
  Volume of ascites in mice: 0 points
Mouse L1210 leukemia; i.p. 50 μg/mouse, day 22
  Volume of ascites in mice: 0 points
Mouse L1210 leukemia; i.p. 50 μg/mouse, day 26
  Volume of ascites in mice: 0 points
Mouse L1210 leukemia; i.p. 50 μg/mouse, day 28
  Volume of ascites in mice: 0 points
Mouse L1210 leukemia; i.p. 75 μg/mouse
  Average lifespan of animals (M ± m): 55 ± 5 days
  Increase in the lifespan of experimental animals: 70%
  Number of animals in the group with tumor: 1 pc
  Number of animals in the group without tumor: 15 pc
Mouse L1210 leukemia; i.p. 75 μg/mouse x7
  Tumor-free animals: 93.8%
Mouse L1210 leukemia; i.p. 75 μg/mouse x7, day 8
  Volume of ascites in mice: 0* points
Mouse L1210 leukemia; i.p. 75 μg/mouse, day 10
  Volume of ascites in mice: 0* points
Mouse L1210 leukemia; i.p. 75 μg/mouse, day 13
  Volume of ascites in mice: 0.4 ± 0.4 points
Mouse L1210 leukemia; i.p. 75 μg/mouse, day 15
  Volume of ascites in mice: 1 ± 1 points
Mouse L1210 leukemia; i.p. 75 μg/mouse, day 15, listed as 64Zn aspartate
  Volume of ascites in mice: 1 points
Mouse L1210 leukemia; i.p. 75 μg/mouse, day 18
  Volume of ascites in mice: 1.1 ± 1.1 points
Mouse L1210 leukemia; i.p. 75 μg/mouse, day 20
  Volume of ascites in mice: 0 points
Mouse L1210 leukemia; i.p. 75 μg/mouse, day 22
  Volume of ascites in mice: 0 points
Mouse L1210 leukemia; i.p. 75 μg/mouse, day 26
  Volume of ascites in mice: 0 points
Mouse L1210 leukemia; i.p. 75 μg/mouse, day 28
  Volume of ascites in mice: 0 points
Mouse L1210 leukemia; i.v. 25 μg/mouse
  Increase in the lifespan of experimental animals: 2.4%
  Number of animals in the group without tumor: 0 pc
  Tumor-free animals: 0%
Mouse L1210 leukemia; i.v. 25 μg/mouse x7, day 8
  Volume of ascites in mice: 3.3 ± 0.3 points
Mouse L1210 leukemia; i.v. 25 μg/mouse, 16 mice per group
  Number of animals in the group with tumor: 16 pc
Mouse L1210 leukemia; i.v. 25 μg/mouse, 60 days observation
  Average lifespan of animals (M ± m): 16.9 ± 1.3 days
Mouse L1210 leukemia; i.v. 25 μg/mouse, day 10
  Volume of ascites in mice: 4.7 ± 0.4 points
Mouse L1210 leukemia; i.v. 25 μg/mouse, day 13
  Volume of ascites in mice: 7.7 ± 0.4 points
Mouse L1210 leukemia; i.v. 25 μg/mouse, day 15
  Volume of ascites in mice: 9.7 ± 0.3 points
Mouse L1210 leukemia; i.v. 25 μg/mouse, day 18
  Volume of ascites in mice: 8 ± 0.9 points
Mouse L1210 leukemia; i.v. 25 μg/mouse, day 20
  Volume of ascites in mice: 10 points
Mouse L1210 leukemia; mouse, in vivo
  percentage of dead tumor cells in the ascites treated with the agent: ≤ 5%
Mouse L1210 leukemia; series of intravenous injections
  effect on the growth of mouse leukemia L1210 cells: no effect

## O=S(=O)([O-])[O-].[64Zn+2] [^64Zn]
[1]
  time of monolayer healing: 36 h
